What was measured:
S. Aureus Smith = test: In vitro antibacterial activity, MIC (modified Autotiter method); format: cell-based, Staphylococcus aureus; conditions: Staphylococcus aureus, 20 h, 18-20 hours at 37° C.; read-out: MIC S. Aureus Smith
Method: (§1) The antibacterial and antifungal activity of representative examples of the compounds of Formula I was determined using a modification of the Autotiter method described by Goss, et al. Applied Microbiology 16 (9) 1,414-1,416 (1968) in which a 1,000 mcg./ml. solution of the test compound is prepared. To the first cup of the Autotray is added 0.1 ml. of the test solution. Activation of the Autotiter initiates a sequence of operations by which 0.05 ml. of the test compound solution is withdrawn from the cup by a Microtiter transfer loop and diluted in 0.05 ml. of sterile water. Following this operation, 0.05 ml. of inoculated double-strength semisynthetic medium (glucose) is added automatically to each cup. The overall operation results in final drug concentrations ranging from 500 to 0.06 mcg./ml. in twofold decrements. […] The compounds were thus tested as solutions against a variety of gram positive and gram negative bacteria including Staphylococcus aureus, Proteus mirabilis, Escherichia coli, Klebsiella pneumoniae, Pseudomonas aeruginosa, Streptococcus pyogenes, and against such fungi as Aspergillus niger, Candida albicans and Trichophyton mentagrophytes.

E. coli 100/B22 = test: as above; format: cell-based, Escherichia coli; conditions: Escherichia coli, 100/B22, 20 h, 18-20 hours at 37° C.; read-out: MIC E. coli 100/B22
Method: as §1

E. coli AB1932-1 = test: as above; format: cell-based, Escherichia coli; conditions: Escherichia coli, AB19321, 20 h, 18-20 hours at 37° C.; read-out: MIC E. coli AB1932-1
Method: as §1

E. coli Vogel = test: as above; format: cell-based, Escherichia coli; conditions: Escherichia coli, 20 h, 18-20 hours at 37° C.; read-out: MIC E. coli Vogel
Method: as §1

K. pneum. 39645 = test: as above; format: cell-based, Klebsiella pneumoniae; conditions: Klebsiella pneumoniae, 20 h, 18-20 hours at 37° C.; read-out: MIC K. pneum. 39645
Method: as §1

P. mirab. MGH-1 = test: as above; format: cell-based, Proteus mirabilis; conditions: Proteus mirabilis, 20 h, 18-20 hours at 37° C.; read-out: MIC P. mirab. MGH-1
Method: as §1

Ps. aerug. MGH-2 = test: as above; format: cell-based, Pseudomonas aeruginosa; conditions: Pseudomonas aeruginosa, 20 h, 18-20 hours at 37° C.; read-out: MIC Ps. aerug. MGH-2
Method: as §1

S. pyogen. C203 = test: as above; format: cell-based, Streptococcus pyogenes; conditions: Streptococcus pyogenes, 20 h, 18-20 hours at 37° C.; read-out: MIC S. pyogen. C203
Method: as §1

A. niger 16404 = test: In vitro antifungal activity, MIC (modified Autotiter method); format: cell-based, Aspergillus niger; conditions: 18-20 hours at 37° C.; for MIC: Aspergillus niger, 16404, 20 h, read-out: MIC A. niger 16404
Method: as §1

C. albicans 10231 = test: as above; format: cell-based, Candida albicans; conditions: Candida albicans, 10231, 20 h, 18-20 hours at 37° C.; read-out: MIC C. albicans 10231
Method: as §1

C. albicans Wisc. = test: as above; format: cell-based, Candida albicans; conditions: Candida albicans, 20 h, 18-20 hours at 37° C.; read-out: MIC C. albicans Wisc.
Method: as §1

T. menta. 9129 = test: as above; format: cell-based, Trichophyton mentagrophytes; conditions: Trichophyton mentagrophytes, 20 h, 18-20 hours at 37° C.; read-out: MIC T. menta. 9129
Method: as §1

Compound	MIC (S. Aureus Smith) [µg/mL]	MIC (E. coli 100/B22) [µg/mL]	MIC (E. coli AB1932-1) [µg/mL]	MIC (E. coli Vogel) [µg/mL]	MIC (K. pneum. 39645) [µg/mL]	MIC (P. mirab. MGH-1) [µg/mL]	MIC (Ps. aerug. MGH-2) [µg/mL]	MIC (S. pyogen. C203) [µg/mL]	MIC (A. niger 16404) [µg/mL]	MIC (C. albicans 10231) [µg/mL]	MIC (C. albicans Wisc.) [µg/mL]	MIC (T. menta. 9129) [µg/mL]	MIC A. niger 16404 (A. niger 16404) [µg/mL]
Fc1ccc(Nc2cc[n+](CCCCCC[n+]3ccc(Nc4ccc(F)cc4)cc3)cc2)cc1 [Example 83B, 1,6-bis-[4-(p-fluorophenylamino)-1-pyridinium]hexane dibromide]	15.6	15.6	15.6	31.3	> 125	> 125	> 62.5	7.8	31.3	31.3	31.3	31.3	
CCCCCCCCCCCCNc1cc[n+](CCCCCCCCC[n+]2ccc(NCCCCCCCCCCCC)cc2)cc1 [Example 73, 1,9-bis-[4-(dodecylamino)-1-pyridinium]nonane dibromide]	7.8	62.5	> 62.5	62.5	> 62.5	62.5	> 62.5	15.6	> 62.5	> 62.5	31.3	7.8	
CCCCCCCCCCCCNc1cc[n+](CCCCCCC[n+]2ccc(NCCCCCCCCCCCC)cc2)cc1 [Example 71, 1,7-bis-[4-(dodecylamino)-1-pyridinium]heptane dibromide]	3.9	62.5	62.5	62.5	> 62.5	62.5	62.5	7.8	62.5	62.5	62.5	7.8	
CCCCCCCCCCNc1cc[n+](CCCCCCCCC[n+]2ccc(NCCCCCCCCCC)cc2)cc1 [Example 67, 1,9-bis-[4-(decylamino)-1-pyridinium]nonane dibromide]	1	3.9	7.8	1.95	15.6	7.8	7.8	1.95	31.3	31.3	15.6	3.9	
CCCCCCCCCNc1cc[n+](CCCCCC[n+]2ccc(NCCCCCCCCC)cc2)cc1 [Example 47, 1,6-bis-[4-(nonylamino)-1-pyridinium]-hexane dibromide]	0.5	1.95	1.95	1	3.9	3.9	15.6	1		3.9	1.95	1	15.6
Clc1ccc(Nc2cc[n+](CCCCCC[n+]3ccc(Nc4ccc(Cl)cc4)cc3)cc2)cc1 [Example 77B, 1,6-bis-[4-(p-chlorophenylamino)-1-pyridinium]hexane dimethanesulfonate]	3.9	15.6	3.9	15.6	500	500	500	1.95	62.5	62.5	125	15.6	
CCCCCCCCCNc1cc[n+](CCCCCCCCC[n+]2ccc(NCCCCCCCCC)cc2)cc1 [Example 50, 1,9-bis-[4-(nonylamino)-1-pyridinium]nonane dibromide]	1.95	1.95	3.9	1.95	3.9	3.9	3.9	1.95	7.8	3.9	3.9	1.95	

From patent US4206215A, “Antimicrobial bis-[4-(substituted-amino)-1-pyridinium]alkanes” (Sterling Drug Inc., priority 1977, dated 1980)
